Assay results taken from ChEMBL document CHEMBL3272338, “Bis-basic-substituted polycyclic aromatic compounds. A new class of antiviral agents. 8. Bis-basic derivatives of carbazole, dibenzofuran, and dibenzothiophene” (1977).

Key:
Type in all cases: functional
[1] = test system: Encephalomyocarditis virus; assay: Antiviral activity against Encephalomyocarditis virus infected in CF-1 mouse assessed as host survival time ratio at 250 mg/kg, sc administered 28, 22, 2 hrs before and 2 hrs after virus inoculation; conditions: route subcutaneous
[2] = test system: Encephalomyocarditis virus; assay: Antiviral activity against Encephalomyocarditis virus infected in CF-1 mouse assessed as host survival time ratio at 250 mg/kg, po administered via gavage as single dose at 22 to 28 hrs before virus inoculation
[3] = test system: Encephalomyocarditis virus; assay: Antiviral activity against Encephalomyocarditis virus infected in CF-1 mouse assessed as host survival time ratio at 50 mg/kg, sc administered 28, 22, 2 hrs before and 2 hrs after virus inoculation; conditions: route subcutaneous
[4] = test system: Encephalomyocarditis virus; assay: Antiviral activity against Encephalomyocarditis virus infected in CF-1 mouse assessed as host survival time ratio at 10 mg/kg, sc administered 28, 22, 2 hrs before and 2 hrs after virus inoculation; conditions: route subcutaneous
[5] = test system: Encephalomyocarditis virus; assay: Antiviral activity against Encephalomyocarditis virus infected in CF-1 mouse assessed as host survival time ratio at 50 mg/kg, po administered via gavage at 28, 22, 2 hrs before and 2 hrs after virus inoculation

| Structure (SMILES) | Ratio [1] | Ratio [2] | Ratio [3] | Ratio [4] | Ratio [5] |
| --- | --- | --- | --- | --- | --- |
| CCn1c2ccc(C(=O)CCCN3CCCCC3)cc2c2cc(C(=O)CCCN3CCCCC3)ccc21.Cl | 0.56 | 1.2 | 1.58 | 1.68 | 1.09 |
| C=CCN(CC=C)CCCOC(=O)c1ccc2oc3ccc(C(=O)OCCCN(CC=C)CC=C)cc3c2c1.Cl | 1.33 | – | 1.2 | 1.11 | – |
| CCCCN(CCCC)CCCOc1ccc2sc3ccc(OCCCN(CCCC)CCCC)cc3c2c1.Cl | 0.96 | 0.88 | 1.14 | 0.88 | 0.9 |
| CN(C)CCCC(=O)c1ccc2sc3ccc(C(=O)CCCN(C)C)cc3c2c1.Cl | 1.09 | 0.95 | 1.66 | 1.09 | 1 |
| CCN(CC)CCOC(=O)c1ccc2c(c1)sc1ccc(C(=O)OCCN(CC)CC)cc12.Cl | 1.2 | – | 1.04 | 1.14 | – |
| O=C(CCCN1CCCCC1)c1ccc2c(c1)sc1ccc(C(=O)CCCN3CCCCC3)cc12 | 2.08 | 1.23 | 1.71 | 1.21 | 1.1 |
| CCN(CC)CCOC(=O)c1ccc2oc3ccc(C(=O)OCCN(CC)CC)cc3c2c1.Cl | 1.09 | 0.98 | 1.02 | 1 | 1.02 |
| Cl.c1cc2oc3ccc(OCCN4CCCCC4)cc3c2cc1OCCN1CCCCC1 | 1.02 | 1.04 | 1.25 | 0.94 | 0.85 |
| CCn1c2ccc(OCCN3CCCCC3)cc2c2cc(OCCN3CCCCC3)ccc21.Cl | 1.25 | 1.09 | 1.32 | 1.16 | 1.09 |
| CCCN(CCC)CCCOC(=O)c1ccc2oc3ccc(C(=O)OCCCN(CCC)CCC)cc3c2c1.Cl | 1.88 | – | 1.21 | 0.96 | – |
| CC(C)N(CCOc1ccc2oc3ccc(OCCN(C(C)C)C(C)C)cc3c2c1)C(C)C | 1.14 | 0.88 | 1.24 | 0.88 | 0.96 |
| Cl.c1cc2sc3ccc(OCCN4CCCCC4)cc3c2cc1OCCN1CCCCC1 | 1.3 | 1.02 | 1.57 | 1.09 | 0.98 |
| CCN(CC)CCCOC(=O)c1ccc2[nH]c3ccc(C(=O)OCCCN(CC)CC)cc3c2c1.Cl | 1.47 | 1.17 | 1.69 | 1.04 | 1.1 |
| CCn1c2ccc(CCCCN3CCCCC3)cc2c2cc(CCCCN3CCCCC3)ccc21.Cl | 0.57 | – | 1.45 | 1.28 | – |
| Cl.c1cc2oc3ccc(OCCN4CCCC4)cc3c2cc1OCCN1CCCC1 | 0.88 | 1 | 1.04 | 1.08 | 0.98 |
| CN(C)CCCOC(=O)c1ccc2oc3ccc(C(=O)OCCCN(C)C)cc3c2c1.Cl | 1.36 | 1.07 | 1.26 | 1.19 | 1.07 |
| CN(C)CCCOc1ccc2oc3ccc(OCCCN(C)C)cc3c2c1.Cl | 0.66 | 0.88 | 1.24 | 0.92 | 0.92 |
| CCn1c2ccc(C(=O)CCCN(C)C)cc2c2cc(C(=O)CCCN(C)C)ccc21.O=C(O)/C=C/C(=O)O | 1.44 | 1.06 | 1.63 | 1.42 | 0.94 |
| CN(C)CCOc1ccc2sc3ccc(OCCN(C)C)cc3c2c1.Cl | 0.91 | 1.06 | 1.13 | 1.09 | 0.98 |
| CC(CN(C)C)Oc1ccc2oc3ccc(OC(C)CN(C)C)cc3c2c1.O=C(O)CC(O)(CC(=O)O)C(=O)O (stereo unspecified) | 0.9 | 0.84 | 1.08 | 0.94 | 0.84 |
| Cl.c1cc2oc3ccc(OCCCN4CCCCC4)cc3c2cc1OCCCN1CCCCC1 | 0.63 | 1.02 | 1.44 | 1.46 | 1.02 |
| CC1CCCN(COC(=O)c2ccc3oc4ccc(C(=O)OCN5CCCC(C)C5)cc4c3c2)C1.Cl (stereo unspecified) | 1.05 | 1 | 1.07 | 1.07 | 1.03 |
| CC(COc1ccc2sc3ccc(OCC(C)CN(C)C)cc3c2c1)CN(C)C.Cl (stereo unspecified) | 0.84 | 0.94 | 1.08 | 0.96 | 1.04 |

| Structure (SMILES) | Ratio [1] | Ratio [2] | Ratio [3] | Ratio [4] | Ratio [5] |
| --- | --- | --- | --- | --- | --- |
| O=C(CCCN1CCOCC1)c1ccc2oc3ccc(C(=O)CCCN4CCOCC4)cc3c2c1 | 1.96 | 1.08 | 1.39 | 1 | 1.08 |
| CCCCN(CCCC)CCCOC(=O)c1ccc2oc3ccc(C(=O)OCCCN(CCCC)CCCC)cc3c2c1.Cl | 1.6 | – | 1.4 | 1.06 | – |
| CCN(CC)CCCCc1ccc2c(c1)c1cc(CCCCN(CC)CC)ccc1n2CC.Cl | – | 1.17 | 1.22 | 1.22 | 0.98 |
| CC(COc1ccc2oc3ccc(OCC(C)CN(C)C)cc3c2c1)CN(C)C.Cl (stereo unspecified) | 0.57 | 0.92 | 1.14 | 1.2 | 0.9 |
| CCCCN(CCCC)CCCNC(=O)c1ccc2oc3ccc(C(=O)NCCCN(CCCC)CCCC)cc3c2c1.O=C(O)CC(O)(CC(=O)O)C(=O)O | 0.85 | – | 1.24 | 1.17 | – |
| CC(C)CCN(CCCOC(=O)c1ccc2oc3ccc(C(=O)OCCCN(CCC(C)C)CCC(C)C)cc3c2c1)CCC(C)C | 1.11 | – | 1.07 | 0.91 | – |
| Cl.c1cc2sc3ccc(OCCCN4CCCCC4)cc3c2cc1OCCCN1CCCCC1 | 0.77 | 1.06 | 1.94 | 1.34 | 0.98 |
| Cl.O=C(OCCCN1CCCCC1)c1ccc2oc3ccc(C(=O)OCCCN4CCCCC4)cc3c2c1 | 0.91 | 1.02 | 1.22 | 1.11 | 0.96 |
| CCN(CC)CCOc1ccc2c(c1)c1cc(OCCN(CC)CC)ccc1n2CC.Cl | 0.85 | 0.92 | 1.13 | 1.05 | 0.87 |
| CCN(CC)CCCOC(=O)c1ccc2c(c1)c1cc(C(=O)OCCCN(CC)CC)ccc1n2CC.Cl | 1.87 | 0.75 | 1.74 | 1.33 | – |
| CC(C)CCN(CCCOC(=O)c1ccc2c(c1)sc1ccc(C(=O)OCCCN(CCC(C)C)CCC(C)C)cc12)CCC(C)C.Cl | 1.11 | – | 0.98 | 0.96 | – |
| CCCCN(CCCC)CCCOC(=O)c1ccc2sc3ccc(C(=O)OCCCN(CCCC)CCCC)cc3c2c1.Cl | 2.43 | 0.93 | 1.48 | 1.29 | 0.93 |
| CCN(CC)CCOc1ccc2sc3ccc(OCCN(CC)CC)cc3c2c1.O=C(O)/C=C/C(=O)O | 1.32 | 0.86 | 1.12 | 0.96 | 0.88 |
| CC(C)N(CCOc1ccc2sc3ccc(OCCN(C(C)C)C(C)C)cc3c2c1)C(C)C.Cl | 1.2 | 1 | 1.3 | 1.24 | 1.18 |
| CCN(CC)CCCOC(=O)c1ccc2sc3ccc(C(=O)OCCCN(CC)CC)cc3c2c1.Cl | 1.3 | – | 1.77 | – | – |
| O=C(CCCN1CCCCC1)c1ccc2sc3ccc(C(=O)CCCN4CCCCC4)cc3c2c1 | 0.61 | 1.22 | 1.9 | 1.1 | 1.16 |
| CC1CCN(CCCC(=O)c2ccc3sc4ccc(C(=O)CCCN5CCC(C)CC5)cc4c3c2)CC1 | 1.69 | 1.1 | 1.84 | 1.22 | 1.06 |
| CC1CCN(CCCC(=O)c2ccc3oc4ccc(C(=O)CCCN5CCC(C)CC5)cc4c3c2)CC1 | 2.04 | 1.19 | 2.13 | 1.23 | 1.11 |
| O=C(CCCN1CCCCC1)c1ccc2[nH]c3ccc(C(=O)CCCN4CCCCC4)cc3c2c1 | 1 | 0.88 | 0.96 | 1.22 | 0.86 |
| CN(C)CCCCC(C)(C)COC(=O)c1ccc2c(c1)sc1ccc(C(=O)OCC(C)(C)CCCN(C)C)cc12.Cl | 1.11 | – | 1.42 | 1.07 | – |
| Cl.O=C(OCCCN1CCCCC1)c1ccc2c(c1)sc1ccc(C(=O)OCCCN3CCCCC3)cc12 | 1.55 | – | 1.36 | 1.4 | – |
| O=C(CCCN1CCCCC1)c1ccc2oc3ccc(C(=O)CCCN4CCCCC4)cc3c2c1 | 1.81 | 1.19 | 1.49 | – | 1.06 |
| CCN(CC)CCCOC(=O)c1ccc2oc3ccc(C(=O)OCCCN(CC)CC)cc3c2c1.Cl | 1.22 | – | 1.19 | – | – |
